The source of these data is ChEMBL document CHEMBL1275395, “Endoperoxide carbonyl falcipain 2/3 inhibitor hybrids: toward combination chemotherapy of malaria through a single chemical entity” (J Med Chem, 2010).

*1 amine or outer side, *2 acyl side, *3 side chain or, on linkers, in order; H or OH if unused. Where a SMILES comes first, the peptide text is derived from it. [ ]: non-standard residue; d: D form. The star is where a group is joined. hPhe = N[C@@H](CCc1ccccc1)C(=O)O; Morpholide = C1CN(*)CCO1; Cbz = O=C(OCc1ccccc1)*; CO = O=C([*:1])[*:2]

One may read the IC50 as the concentration that gives 50% inhibition.

The test system of test [1] is Plasmodium falciparum. As to the kind of experiment: Antimalarial activity against Plasmodium falciparum 3D7 infected in human erythrocytes after 4 hrs. Format: functional, organism-based. The settings on record: 3D7, 4 h.
Test [2] in a line: Inhibition of Plasmodium falciparum recombinant falcipain-3.
Test [3] in a line: Inhibition of Plasmodium falciparum recombinant falcipain-2.

For the compound `CCOC[C@@]1([C@H](CCc2ccccc2)NC(=O)[C@H](CC(C)C)NC(=O)OCc2ccccc2)OOC2(O1)C1CC3CC(C1)CC2C3` (stereo partly drawn), the IC50 in test [1] was 572 nM; in test [2], under 24200 nM; in test [3], under 8670 nM.
In the case of `CC(C)C[C@H](NC(=O)OCc1ccccc1)C(=O)N[C@H](C=O)CCc1ccccc1` (Cbz-Leu-[hPhe]-aldehyde), the half-maximal inhibitory concentration (IC50) in test [1] is 27.1 nM; in test [2] it was 199 nM; in test [3], 1.4 nM.
The corresponding values for `CCOCC(=O)[C@H](Cc1ccccc1)NC(=O)[C@H](CC(C)C)NC(=O)OCc1ccccc1` are over 10000 nM, 21600 nM and 1960 nM.
Turning to `CCOCC(=O)[C@H](CCc1ccccc1)NC(=O)[C@H](CC(C)C)NC(=O)OCc1ccccc1`, the 50% inhibitory concentration (IC50) in test [1] is over 10000 nM; in test [2], 853 nM; in test [3] it was 2050 nM.
The corresponding values for `COC[C@@]1([C@H](CCc2ccccc2)NC(=O)[C@H](CC(C)C)NC(=O)OCc2ccccc2)OOC2(O1)C1CC3CC(C1)CC2C3` (stereo partly drawn) are 582 nM, under 19800 nM and under 11500 nM.
In the same order, the values of `CC(C)C[C@@H](C(=O)N[C@@H](CCc1ccccc1)[C@H]1OOC2(O1)C1CC3CC(C1)CC2C3)N1CCOCC1` (stereo partly drawn) are 35.3 nM, 332 nM and 510 nM.
With `CC(C)C[C@H](NC(=O)OCc1ccccc1)C(=O)N[C@@H](CCc1ccccc1)C(=O)COc1ccccc1`, the IC50 stood at 310 nM in test [1], 222 nM in test [2] and 438 nM in test [3].
In the case of `COCC(=O)[C@H](Cc1ccccc1)NC(=O)[C@H](CC(C)C)NC(=O)OCc1ccccc1`, the IC50 in test [1] was over 10000 nM; in test [2], 8610 nM; in test [3], 1970 nM.
As for `CCOC[C@@]1([C@@H](NC(=O)[C@H](CC(C)C)NC(=O)OCc2ccccc2)c2ccccc2)OOC2(O1)C1CC3CC(C1)CC2C3` (stereo partly drawn), the 50% inhibitory concentration (IC50) in test [2] is over 25000 nM; in test [3], under 8580 nM.
As to `COC[C@@]1([C@@H](NC(=O)[C@H](CC(C)C)NC(=O)OCc2ccccc2)c2ccccc2)OOC2(O1)C1CC3CC(C1)CC2C3` (stereo partly drawn), the 50% inhibitory concentration (IC50) was 2560 nM in test [1], 44200 nM in test [2] and 1200 nM in test [3].
In the case of `CC(C)C[C@H](NC(=O)OCc1ccccc1)C(=O)N[C@@H](CCc1ccccc1)[C@H]1OOC2(O1)C1CC3CC(C1)CC2C3` (stereo partly drawn), the IC50 in test [1] worked out at 55.5 nM; in test [2], 947 nM; in test [3], 425 nM.
The corresponding values for `CC(C)C[C@H](NC(=O)N1CCOCC1)C(=O)N[C@H](C=O)CCc1ccccc1` ({Morpholide-CO}-Leu-[hPhe]-aldehyde) are 9.3 nM, 215 nM and 16.3 nM.
In the same order, the values of `COCC(=O)[C@H](CCc1ccccc1)NC(=O)[C@H](CC(C)C)NC(=O)OCc1ccccc1` are over 10000 nM, 5600 nM and 7150 nM.
